In experiment [1] the test system is ARID1A-mutated TOV21G tumors. The experiment can be described thus: intrabursal orthotopic xenograft, ARID1A-mutated TOV21G. In kind it is in vivo, mice. From the text:
Luciferase-expressing ARID1A-mutated TOV21G cells were orthotopically transplanted into the ovarian bursa sac of SCID/nude female mice. Tumors were allowed to establish for 14 days before randomized into two groups (n=6/group).
During treatment at indicated time interval mice were imaged based on luciferase expression to monitor tumor growth. Total flux (photons/sec) is graphed. *p=0.0313.
ARID1A-mutated TOV21G cells were orthotopically transplanted into the ovarian bursa sac of SCID/nude female mice. Tumors were allowed to establish for 2 weeks before the mice were randomized into two different treatment groups (n=5/group). […] After stopping the treatment, the mice from the indicated groups were followed for survival. Shown is the Kaplan-Meier survival curves for ACY1215 or vehicle control treated mice. The p-value was calculated by log-rank test.
The number of disseminated tumor nodules in peritoneal cavity was quantified.
Histological score (H-score) was calculated for 5 separate fields from 6 tumors from 6 individual mice from each of the indicated groups. Error bars represent S.E.M. The p-value was calculated via two-tailed t-test.
Immunofluorescence and immunohistochemical staining was performed as follows. Immunofluorescence was performed after 48 hours as indicated by fixing samples in 4% paraformaldehyde and permeabilizing with 0.5% Triton-X. Samples were incubated with primary antibodies for 2 hours at room temperature, highly cross absorbed secondary antibodies (Invitrogen) for 1 hour at room temperature and mounted with prolong anti-fade reagent (Invitrogen). Immuno-stained cells were imaged using a Leica Confocal microscope. […] Bitler et al. Nat. Med. 2015, 21, 231-238; Bitler et al. Cancer Research 2011, 71, 6184-6194. Expression of the stained markers was scored using a histologic score (H score) as previously described. McCarty, Jr. et al. Cancer research 1986, 46, 4244s-4248s.
The intrabursal orthotopic xenograft in vivo model was performed as described previously (Bitler et al. Nat. Med. 2015, 21, 231-238; Bitler et al. Cancer Research 2011, 71, 6184-6194). The protocols were approved by the Institutional Animal Care and Use Committee (IACUC). Briefly, 1×10^6 luciferase-expressing TOV-21G or RMG1 cells were unilaterally injected into the ovarian bursa sac of immunocompromised mice (n=6 per group). Two weeks after injection, tumors were visualized by injecting luciferin (intraperitoneal (i.p.): 4 mg/mice) resuspended in PBS and imaged with an In Vivo Imaging System (IVIS). […] Images were analyzed using Live Imaging 4.0 software. At end of the experiments, tumors were surgically dissected and tumor burden was calculated based on tumor weight. Intraperitoneally disseminated tumor nodules were quantified.
Seidel et al. Epigenomics 2015, 7, 103-118. […] Santo et al. Blood 2012, 119, 2579-2589. To determine the effects of HDAC6 inhibition in vivo on the growth of ARID1A-mutated tumors, luciferase-expressing ARID1A-mutated TOV21G cells were orthotopically transplanted into the bursa-sac covering the ovary of immunocompromised nude mice to mimic the tumor microenvironment. The injected ARID1A wild-type or mutant cells were allowed to grow for 2 weeks to establish the orthotopic tumors.

Experiment [2] relates to p53 acetylation (lysine 120, 373, 382) in ARID1A-mutated TOV21G cells. The experiment can be described thus: immunoblot of p53 acetylation, TOV21G. In kind it is cell-based, human. To be noted: 1.25 μM. On the procedure: Expression of the indicated proteins was determined by immunoblot. GAPDH expression was used as a loading control.
For immunoblotting, protein was isolated as described in Bitler et al. Nat. Med. 2015, 21, 231-238. Briefly, protein was extracted with RIPA buffer (150 mM NaCl, 1% NP40, 0.5% sodium deoxycholate, 0.1% SDS, 50 mM Tris pH 8.0, and 1 mM PMSF). Protein was separated on a SDS-PAGE and transferred to PVDF membrane. For immunoblot of p53 post-translation modifications, cells were treated with a proteasome inhibitor MG132 (10 μM) to stabilize p53 protein.

Experiment [3] has as its system primary clear cell ovarian tumour cultures with (VOA4841) and without (XVOA295) ARID1A expression. The experiment can be described thus: colony formation / dose response, primary clear cell ovarian tumour cultures. The format is cell-based, human. How it is done: FIG. 71 illustrates the HDAC6 inhibitor ACY1215 dose response curves of primary clear cell ovarian tumour cultures with (VOA4841) and without (XVOA295) ARID1A expression; n=3 independent experiments.
Cell lines and 3D culture conditions. The protocol for using primary cultures of human ovarian clear cell tumour cells was approved by the University of British Columbia Institutional Review Board. The primary tumour cells were cultured in RPMI 1640 supplemented with 10% fetal bovine serum (FBS) and 1% penicillin/streptomycin. Ovarian clear cell carcinoma cell lines (TOV21G, OVTOKO, OVISE and RMG1) were purchased from JCRB (Japanese Collection of Research Bioresources) Cell Bank. TOV21G, OVTOKO, and OVISE cells were cultured in RPMI 1640 supplemented with 10% fetal bovine serum (FBS) and 1% penicillin/streptomycin. RMG1 cells were cultured in 1:1 Dulbecco's modified Eagle's medium (DMEM):F12 supplemented with 10% FBS. Viral packaging cells were cultured in DMEM supplemented with 10% FBS at 37° C. supplied with 5% CO2. Cells lines are authenticated at The Wistar Institute's Genomics Facility using short tandem repeat DNA profiling. Regular Mycoplasma testing was performed using LookOut Mycoplasma PCR detection (Sigma-Aldrich Co.). […]
Colony formation assays were performed as follows. […] Integrated density was measured using NIH ImageJ software.

[4] abbreviates: dissected ARID1A-mutated tumors.

Consider 1 compound from patent publication US20190192521A1, “Methods of Treating Arid1A-Mutated Cancers With HDAC6 Inhibitors and EZH2 Inhibitors” (The Wistar Institute of Anatomy and Biology, priority 2016, published 2019).

The structures appear in SMILES notation.

Turning to `O=C(CCCCCCNC(=O)c1cnc(N(c2ccccc2)c2ccccc2)nc1)NO` [rocilinostat, 2-(diphenylamino)-N-(7-(hydroxyamino)-7-oxoheptyl)pyrimidine-5-carboxamide], in experiment [1] (50 mg/kg daily i.p., 21 days), the “growth of ARID1A-mutated tumors (luciferase total flux)” value is reported as “significantly inhibited the growth”. Moreover, in experiment [1] (50 mg/kg daily, 3 weeks), the “number of tumor nodules in peritoneal cavity” value is reported as “significant decrease in the number of tumor nodules” and the “tumor burden (tumor weight)” value is on record as “significantly reduced the burden”. Besides, the “survival of mice bearing ARID1A-mutated tumors” value in experiment [1] (50 mg/kg daily, 3 weeks, followed after stopping treatment) is given as “significantly improved the survival”. This compound also came in with a median survival in experiment [1] (50 mg/kg daily, 3 weeks, vehicle control 35 days, p=0.0023) of 51 days. For the same compound, in experiment [1] (setting [4]), the “HDAC6 expression (IHC)” value is “not affected”, the “apoptotic marker cleaved caspase 3 (IHC H-score)” value is given as “increased”, the “cell proliferation marker Ki67 (IHC H-score)” value is reported as “significantly decreased” and the “p53K120Ac staining (IHC)” value was “significantly increased”. Moreover, in experiment [2], the “acetylation status of lysine 373 or 382 residue of p53” value is recorded as “unchanged” and the p53K120Ac level result is given as “upregulated”. For the same compound, in experiment [3], the “IC50 values in primary cells” value is listed as “comparable to those observed in cell lines” and the “sensitivity of cultures without ARID1A expression compared to those with ARID1A expression” value is given as “more sensitive”.
